Consider 49 molecules from PubChem BioAssay AID743155 (The Scripps Research Institute Molecular Screening Center, 2013).

As a reminder, the IC50 is the concentration needed to halve the response being measured.

The source made the active and inactive calls. No rule for the calls is given here.

The test has as its system Jurkat cells cytotoxicity, ATP luminescence. The test is described as follows: Jurkat cell viability loss, dose response – luminescence, human T lymphocytes, Round001, cytotoxicity control for T. brucei MetRS inhibitor project, late-stage follow-up (AID 743155).

As to `CCN(C(=O)Cn1cc(C(=O)C(=O)N2CCOCC2)c2ccccc21)c1ccccc1`, the IC50 is > 83.3 µM (inactive).
As to `COc1ccc(CCN(C(=S)Nc2ccccc2)C2CC(=O)N(c3ccc(Cl)cc3)C2=O)cc1` (centres undefined), the IC50 is 27.2 µM (inactive).
The value for `CCN(CC)C(=O)C(=O)c1cn(CC(=O)N(CC)c2ccccc2)c2ccccc12` was > 27.8 µM (inactive).
For the molecule `Cc1cccc(C(=O)NCCc2nc3ccccc3n2CCOc2ccccc2)c1`, the IC50 is > 27.8 µM (inactive).
For `Cc1cccc2[nH]c(CCN(C)C(=O)c3cccc(C4CCNC4)c3)nc12` (centres undefined), the IC50 is > 83.3 µM (inactive).
For `O=C1CC(NCCc2ccccc2)C(=O)N1c1ccc(Br)cc1` (centres undefined), the IC50 was > 83.3 µM (inactive).
Take `CNC(=S)N(CCc1ccccc1)C1CC(=O)N(c2ccc(Br)cc2)C1=O` (centres undefined): the IC50 was > 27.8 µM (inactive).
As to `CC(=O)N(CCc1ccccc1)C1CC(=O)N(c2ccc(Cl)cc2)C1=O` (centres undefined), the IC50 is > 27.8 µM (inactive).
In the case of `O=C(NCCc1nc2ccccc2[nH]1)c1c(F)cccc1F`, the IC50 is > 83.3 µM (inactive).
`O=C(Cn1cc(C(=O)C(=O)N2CCOCC2)c2ccccc21)NCC1CCCO1` (centres undefined): the IC50 was > 83.3 µM (inactive).
The value for `CCN(CC)C(=O)C(=O)c1cn(CC(=O)Nc2ccccc2OC)c2ccccc12` was > 83.3 µM (inactive); that for `Cn1c(CCNC(=O)c2ccc(Cl)cc2)nc2ccccc21` was > 27.8 µM (inactive); that for `CCC(=O)c1cn(CC(=O)Nc2cccc(C(F)(F)F)c2)c2ccccc12` was > 27.8 µM (inactive).
Take `COc1ccccc1NC(=O)Cn1cc(C(=O)C(=O)N2CCOCC2)c2ccccc21`: the IC50 is > 83.3 µM (inactive).
In the case of `Cc1ccc2[nH]c3nc(SCC(=O)Nc4ccc(C(F)(F)F)cc4)nnc3c2c1`, the IC50 was > 83.3 µM (inactive).
Take `O=C(Cn1cc(C(=O)c2ccccc2)c2ccccc21)Nc1cccc(C(F)(F)F)c1`: the IC50 was 55.5 µM (inactive).
The value for `Cc1cccc(NC(=O)C2CC(=O)n3c(nc4ccccc43)N2)c1` (centres undefined) was > 27.8 µM (inactive); that for `O=C(NCCc1nc2ccccc2[nH]1)c1ccc(Cl)cc1` was > 27.8 µM (inactive).
As for `COc1ccc(CCN(C(=O)c2cccc(F)c2)C2CC(=O)N(c3ccc(Br)cc3)C2=O)cc1` (centres undefined), the IC50 was > 83.3 µM (inactive).
On to `CC1Cc2ccccc2N1C(=O)Cn1cc(C(=O)C(=O)N2CCOCC2)c2ccccc21` (centres undefined), for which the IC50 was > 83.3 µM (inactive).
As for `COc1ccc(NC(=O)C2CC(=O)n3c(nc4ccccc43)N2)cc1` (centres undefined), the IC50 was > 83.3 µM (inactive).
Consider `CC(=O)N(CCc1ccccc1)C1CC(=O)N(c2ccc(Br)cc2)C1=O` (centres undefined), for which the IC50 was > 27.8 µM (inactive).
Consider `O=C(CSC1CC(=O)N(c2cccc(Cl)c2)C1=O)Nc1ccc(Br)cc1` (centres undefined), for which the IC50 is > 27.8 µM (inactive).
The value for `COc1ccccc1NC(=O)CSc1nnc2c(n1)[nH]c1ccc(C)cc12` was 47.1 µM (inactive).
As for `CCN(CC)C(=O)C(=O)c1cn(CC(=O)Nc2cccc(OC)c2)c2ccccc12`, the IC50 is > 27.8 µM (inactive).
On to `CCc1ccc2[nH]c3nc(SCC(=O)NCc4cccc(OC)c4)nnc3c2c1`, for which the IC50 is > 27.8 µM (inactive).
The value for `O=C(NCCc1nc2ccccc2[nH]1)c1ccc(Cl)c(Cl)c1` was > 83.3 µM (inactive).
For the molecule `O=C(Cn1cc(C(=O)C(=O)N2CCOCC2)c2ccccc21)NCc1ccccc1`, the IC50 is > 83.3 µM (inactive).
With `CCCCn1c(CCNC(=O)c2ccc(F)cc2)nc2ccccc21`, the IC50 was > 27.8 µM (inactive).
The value for `O=C(NCCc1nc2ccccc2[nH]1)c1ccc(Cl)cc1Cl` was > 27.8 µM (inactive); that for `O=C(CSc1nnc2c(n1)[nH]c1ccc(Br)cc12)NCc1ccccc1` was > 27.8 µM (inactive); that for `Cc1ccc(CNC(=O)CSc2nnc3c(n2)[nH]c2ccc(C)cc23)cc1` was > 27.8 µM (inactive).
The value for `CCN(CC)C(=O)C(=O)c1cn(CC(=O)N2CCCc3ccccc32)c2ccccc12` was > 83.3 µM (inactive); that for `CCc1ccc2c(c1)c1nnc(SCC(=O)Nc3ccc4c(c3)OCO4)nc1n2C` was 81.1 µM (inactive).
On to `O=C(Cn1cc(C(=O)COc2ccccc2)c2ccccc21)Nc1cccc(C(F)(F)F)c1`, for which the IC50 was > 27.8 µM (inactive).
Take `Cc1cccc2[nH]c(C3CCCN(C(=O)c4cccc5cccnc45)C3)nc12` (centres undefined): the IC50 was > 27.8 µM (inactive).
Take `O=C(Cn1cc(C(=O)c2ccco2)c2ccccc21)Nc1cccc(C(F)(F)F)c1`: the IC50 was 74 µM (inactive).
With `COc1cccc(NC(=O)C2CC(=O)n3c(nc4ccccc43)N2)c1` (centres undefined), the IC50 is > 83.3 µM (inactive).
`O=C(Cn1cc(C(=O)C(=O)N2CCCC2)c2ccccc21)Nc1ccccc1`: the IC50 is > 83.3 µM (inactive).
For the molecule `O=C(Nc1ccc(F)c(Cl)c1)C1CC(=O)n2c(nc3ccccc32)N1` (centres undefined), the IC50 is > 83.3 µM (inactive).
The value for `O=C(Cn1cc(C(=O)C2CC2)c2ccccc21)Nc1cccc(C(F)(F)F)c1` was > 27.8 µM (inactive); that for `CCN(CC)C(=O)C(=O)c1cn(CC(=O)Nc2cccc(C(F)(F)F)c2)c2ccccc12` was 38 µM (inactive).
`COCCc1nc2ccc(C(=O)NCCc3nc4ccc(OC)cc4[nH]3)cc2o1`: the IC50 is > 27.8 µM (inactive).
`Cc1cc2cc(C(=O)N3CCCC(c4nc5ccccc5[nH]4)C3)ccc2o1` (centres undefined): the IC50 is > 27.8 µM (inactive).
Regarding `CCN(CCc1nc2ccc(C)cc2[nH]1)C(=O)c1ccc2ncccc2c1`, the IC50 is > 83.3 µM (inactive).
Turning to `CC(C)c1nc2ccc(C(=O)N(C)CCc3nc4ccc(F)cc4[nH]3)cc2o1`, the IC50 was > 83.3 µM (inactive).
On to `Cc1ccc(C(=O)NCCc2nc3ccccc3[nH]2)cc1[N+](=O)[O-]`, for which the IC50 was > 27.8 µM (inactive).
`CC(=O)c1cn(CC(=O)Nc2cccc(C(F)(F)F)c2)c2ccccc12`: the IC50 was > 27.8 µM (inactive).
Regarding `COc1ccc(NC(=O)CSc2nnc3c4cc(C)ccc4n(C)c3n2)cc1`, the IC50 is > 83.3 µM (inactive).
